Consider 2 compounds from patent publication US5633009A, “Transdermal administration of azapirones” (Sano Corporation, priority 1993, dated 1997).

The Tmax is the time at which the peak concentration occurs. As usually defined, the AUC is concentration integrated over time. A high value points to high exposure. The Cmax is the highest concentration seen after dosing.

In series [1] the test system is nicotine dependence / nicotine withdrawal symptoms. As to the kind of experiment: smoking cessation: nicotine dependence and withdrawal symptoms in individuals attempting to stop smoking. In kind it is in vivo, human. The conditions noted are these: transdermal device of Example 1, 20 cm^2, changed once a day for 21 days; five individuals. As to the method:
Transdermal delivery devices are prepared as described in Example 1.

For the next series, the system named is depression. In words: treatment of out-patients with clinically assessed depression. In kind it is in vivo, human. The conditions noted are these: transdermal device of Example 6, daily for four weeks; twenty out-patients in two groups. How it is done:
Transdermal delivery devices are prepared as described in Example 6. Twenty out-patients comprised of both males and females and suffering from clinically assessed depression are divided into two groups.

The next series concerns premenstrual syndrome. In words: treatment of women suffering from premenstrual syndrome. In kind it is in vivo, human. To be noted: transdermal device of Example 6, five days preceding the onset of menstruation; eight women.
The test system of series [2] is psychogenic symptomatologies. To be noted: oral; anxiety, depression, panic disorders, nicotine dependence and others; cited from earlier work.
Another series is described as follows: clinical. To be noted: human, in vivo.
For series [3] the following is noted: in vivo, po; cited from earlier work.
A short description of series [4]: examination of patch for recrystallization after 24 months storage. In kind it is physicochemical. To be noted: Example 2 matrix patch (polyvinylacetate, isocetyl alcohol). As to the method: The matrix layer mixture is slot die coated onto the backing layer. To do this, the mixture is allowed to flow through a slot to form a thin coat of a desired thickness, containing approximately 20 mg/cm^2 of the mixture, which is deposited onto a layer of polyester film laminate backing layer (ScotchPak 1012, 3M Corporation, St. Paul, Minn.).
A layer of double-sided pressure-sensitive polyacrylate adhesive and a layer of silicone coated polyester release liner are laminated to the face of the matrix facing away from the backing layer to form a quadruple laminate of backing layer/buspirone loaded matrix layer/pressure-sensitiveadhesive layer/release liner (peel strip) layer. […] For use, one transdermal buspirone delivery device is removed from its packet, the release liner (peel strip) layer is removed and discarded, and the pressure-sensitive adhesive layer is applied firmly to the patient's arm.

On to `O=C1CC2(CCCC2)CC(=O)N1CCCCN1CCN(c2ncccn2)CC1` [buspirone], for which, in series [1], the nicotine dependence entry is recorded as “decrease in nicotine dependence”; the “symptoms including drowsiness, restlessness, headache, irritability, inability to concentrate, and increased appetite” value is “decrease in symptoms”. Further, the “improvement of depression versus placebo patches” value with depression is reported as “significant improvement”. In addition, in the series with premenstrual syndrome, the premenstrual syndrome symptoms entry is “decrease in their symptoms”. Further, the “clinical response of psychogenic symptomatologies” value in series [2] is recorded as “responsive to oral buspirone”. In addition, in “clinical” (po), the Tmax turned out to be 0.8 h. Moreover, in the series “clinical” (topical or ocular), the AUC came out at 0.0127 µg·h/mL, the peak level (Cmax) was 0.79 ng/mL and the Tmax stood at 16.5 h. In addition, in series [3], the “absorption from the gastrointestinal tract” value was “poorly absorbed”.
For `O=C1c2ccccc2S(=O)(=O)N1CCCCN1CCN(c2ncccn2)CC1` [ipsapirone], the “recrystallization in patch on storage” value in series [4] is “no recrystallization”.
